SMILES strings stand for the structures.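 96-well plates; 48 h exposure; 5 concentrations. Endpoints by linear interpolation between flanking doses. Not reached: highest tested concentration assigned. GI50 marks 50% less growth. TGI: concentration producing complete growth inhibition.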

What all share (test): inhibition of tumour cell growth, NCI panel, 48 h
In assay [1] the test system is ACHN renal.
In assay [2] the test system is HOP-62 NSCLC.
For assay [3], the system named is MALME-3M melanoma.
The subject of assay [4] is MCF7 breast.
Assay [5] concerns PC-3 prostate.
For assay [6], the system named is SF-268 CNS.
Assay [7] deals with SF-295 CNS.
Assay [8] relates to SF-539 CNS.
The subject of assay [9] is SK-MEL-2 melanoma.
For assay [10], the system named is SK-MEL-5 melanoma.

Regarding `CC(=O)[CH-]C(C)=O.CC(=O)[CH-]C(C)=O.N=CC=N.[Sn+2]`, the GI50 in assay [1] was 3.2 µM; in [2], 19.3 µM; in [3], 2.02 µM; in assay [4] it was 2.63 µM; in assay [5], 5.03 µM; in [6], 3.28 µM. The GI50 in assay [7] is 10.4 µM; in assay [8], 3.23 µM; in assay [9] it was 3.46 µM; in assay [10], 5.46 µM. Also, the TGI in assay [1] came to 9.77 µM; in assay [2] it was 33.9 µM; in assay [3], 4.24 µM; in [4] it was 12 µM; in [5] it was 17.6 µM; in [6], 10.5 µM. In addition, the TGI in assay [7] was determined as 23.3 µM; in [8], 11.8 µM; in assay [9] it was 11.2 µM; in assay [10] it was 16.9 µM.
For `Oc1ccc(Cc2ccccc2)c2cccnc12`, the GI50 is 1.21 µM in assay [1]; 2.03 µM in [2]; 2.96 µM in assay [3]; 7.46 µM in [4]; 2.7 µM in assay [5]; 2.18 µM in [6]. The GI50 is 1.34 µM in [7], 1.66 µM in assay [8], 12.7 µM in [9] and 1.52 µM in [10]. The TGI is 9.53 µM in assay [1]; 80.6 µM in assay [2]; 31.6 µM in [3]; > 100 µM in assay [4]; 67.4 µM in [5]; 86.8 µM in assay [6]. Also, the TGI in assay [7] was 20.5 µM; in assay [8], 19.2 µM; in assay [9] it was 70.6 µM; in assay [10] it was 10.8 µM.
On to `Nc1ccc(SC23CC4CC(CC(C4)C2)C3)cc1`, for which the TGI in assay [1], in assay [2], in [3], in [4], in assay [5] and in [6] was > 100 µM in each case. Also, the TGI in assay [7], in assay [8], in [9] and in assay [10] was > 100 µM in each case.
For `N#Cc1c(-c2ccccc2)nc2c(c(-c3ccccc3)nn2-c2ccccc2)c1-c1ccc(O)cc1`, the GI50 was 2.24 µM in assay [1]; 2.12 µM in assay [2]; 1.62 µM in [3]; 1.86 µM in [4]; 1.82 µM in assay [5]; 2.83 µM in assay [6]. The GI50 in assay [7] is 1.88 µM; in [8], 1.25 µM; in [9] it was 2.39 µM; in [10], 1.76 µM. In addition, the TGI came out at 5.89 µM in [1]; 4.49 µM in assay [2]; 3.83 µM in [3]; 4.76 µM in assay [4]; 3.78 µM in assay [5]; 9.14 µM in assay [6]. Moreover, the TGI in assay [7] was 4.29 µM; in [8] it was 2.76 µM; in assay [9], 5.65 µM; in assay [10], 3.19 µM.
Regarding `NCCN1CCN(c2nccc(-c3ccc4ccccc4c3)n2)CC1`, the GI50 is 1.71 µM in assay [1]; 1.76 µM in assay [2]; 1.83 µM in assay [3]; 1.67 µM in assay [4]; 1.86 µM in assay [5]; 1.75 µM in assay [6]. The GI50 in [7] is 1.68 µM; in [8], 1.79 µM; in [9], 2.21 µM; in assay [10] it was 1.67 µM. For the same compound, the TGI in assay [1] was 3.29 µM; in assay [2], 3.28 µM; in [3] it was 3.52 µM; in [4], 3.52 µM; in [5] it was 4.36 µM; in assay [6], 3.49 µM. Moreover, the TGI came to 3.34 µM in assay [7], 3.28 µM in assay [8], 4.36 µM in assay [9] and 3.05 µM in assay [10].
On to `Cc1ncc(NC(=O)c2ccc(CN3CCN(C)CC3)c(C(F)(F)F)c2)cc1Nc1nccc(-c2cccnc2)n1`, for which the GI50 in [1] was 14.2 µM; in assay [2], 15.7 µM; in assay [3], 0.582 µM; in [4] it was 13.8 µM; in assay [5], 16.9 µM; in assay [6] it was 17.4 µM. In addition, the GI50 in assay [7] is 16.2 µM; in assay [8], 11.8 µM; in assay [9], 14.7 µM; in [10], 16.3 µM. Besides, the TGI in assay [1] was 27.3 µM; in assay [2], 30.5 µM; in assay [3], 14.4 µM; in [4], 28.7 µM; in assay [5], 32.9 µM; in assay [6] it was 33.7 µM. The TGI in assay [7] amounted to 30 µM; in assay [8] it was 24.4 µM; in [9], 29.4 µM; in [10], 30.2 µM.
Take `CNC(=O)c1cn(C[C@H](F)CCc2ccc(NC(=O)Cc3cc(OC4CC(F)(F)C4)cc(C)n3)nn2)nn1`: the GI50 in assay [1], in assay [2], in assay [3], in assay [4], in assay [5] and in [6] was > 100 µM in each case. For the same compound, the GI50 in [7], in assay [8], in [9] and in assay [10] was > 100 µM in each case. Further, the TGI in assay [1], in assay [2], in assay [3], in assay [4], in assay [5] and in [6] was > 100 µM each time. Further, the TGI in assay [7], in assay [8], in assay [9] and in assay [10] was > 100 µM throughout.
Turning to `CCN(Cc1c(F)cccc1F)c1ccc(CO)c(Cl)c1`, the GI50 in assay [1] was 20.8 µM; in [2] it was 0.327 µM; in assay [3], 17.5 µM; in assay [4], 0.0488 µM; in assay [5] it was 12.6 µM; in assay [6], 24.8 µM. Besides, the GI50 is 0.108 µM in [7], 20.5 µM in assay [8], 14.6 µM in [9] and 13.5 µM in [10]. For the same compound, the TGI is > 74.5 µM in [1]; 34.7 µM in assay [2]; 36.6 µM in [3]; 18.4 µM in [4]; 46.9 µM in assay [5]; > 77.3 µM in assay [6]. Further, the TGI was 28 µM in [7], > 59.2 µM in assay [8], 31.8 µM in assay [9] and 26.7 µM in assay [10].
